The record followed here is PubChem BioAssay (NCI).

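48-hour exposure; five concentrations; linearly interpolated endpoints. GI50 is the concentration that inhibits growth by half. TGI denotes the concentration required for complete inhibition of growth.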

As usually defined, the GI50 is the concentration that inhibits growth by half. The TGI is the concentration at which net growth stops.

Some test systems named below: 786-0 renal; ACHN renal; CAKI-1 renal; HCT-15 colon; HL-60(TB) leukemia; HS 578T breast; NCI-H460 lung; OVCAR-8 ovarian; TK-10 renal; UACC-257 melanoma.
Common to all, as to assay: DTP human tumour cell line panel, 48 h

Regarding `Cc1cc(NC(=O)c2ccc(C)c(Nc3nccc(-c4cccnc4)n3)c2)cc(-n2cnc(C)c2)c1`, the GI50 was 1.56 µM with 786-0 renal; 0.0734 µM in the test on ACHN renal; 2.18 µM with CAKI-1 renal; 7.49 µM with HCT-15 colon; 14.5 µM in the test with HL-60(TB) leukemia; 0.0847 µM with HS 578T breast. The 50% growth inhibitory concentration (GI50) was 0.0794 µM in the test with NCI-H460 lung, 4.27 µM in the test on OVCAR-8 ovarian, 0.0882 µM in the test on TK-10 renal and 1.53 µM with UACC-257 melanoma. The TGI in the test with 786-0 renal is 6.12 µM; in the test with ACHN renal, 3.96 µM; with CAKI-1 renal it was 7.15 µM; with HCT-15 colon, above 27 µM; in the test on HL-60(TB) leukemia, above 50 µM; with HS 578T breast it was 14.4 µM. For the same compound, the concentration for total growth inhibition (TGI) in the test on NCI-H460 lung is 4.16 µM; in the test on OVCAR-8 ovarian it was 13.7 µM; in the test with TK-10 renal, 2.2 µM; in the test on UACC-257 melanoma, 5.92 µM.
As for `CN(C)c1ccc2nc3ccc(=O)cc-3sc2c1`, the GI50 with 786-0 renal was 2.06 µM; in the test on ACHN renal it was 0.274 µM; in the test with CAKI-1 renal, 2.24 µM; with HCT-15 colon it was 0.322 µM; in the test with HL-60(TB) leukemia, 0.77 µM; in the test with HS 578T breast, 7.12 µM. Moreover, the GI50 with NCI-H460 lung was 1.55 µM; with OVCAR-8 ovarian, 0.651 µM; in the test with TK-10 renal, 13.8 µM; in the test on UACC-257 melanoma it was 0.38 µM. For the same compound, the TGI with 786-0 renal is above 100 µM; in the test on ACHN renal it was above 49.1 µM; with CAKI-1 renal it was above 90.7 µM; with HCT-15 colon it was above 86 µM; in the test on HL-60(TB) leukemia, 3.94 µM; with HS 578T breast it was above 100 µM. Moreover, the TGI in the test with NCI-H460 lung was 15.7 µM; in the test with OVCAR-8 ovarian, above 100 µM; in the test with TK-10 renal, above 77.7 µM; with UACC-257 melanoma it was 3.29 µM.
Regarding `NC(=O)C(=CNc1nc(-c2ccc(Cl)c(Cl)c2)cs1)C(N)=O`, the GI50 in the test with 786-0 renal was above 100 µM; with ACHN renal it was above 100 µM; with CAKI-1 renal, 25.3 µM; in the test on HCT-15 colon it was 84.7 µM; with HL-60(TB) leukemia, 42.8 µM; with HS 578T breast, 26.9 µM. In addition, the GI50 was 69.7 µM in the test on NCI-H460 lung, 80.7 µM in the test on OVCAR-8 ovarian, above 100 µM in the test with TK-10 renal and above 100 µM in the test on UACC-257 melanoma. In addition, the TGI with 786-0 renal, with ACHN renal, in the test on CAKI-1 renal, in the test on HCT-15 colon, in the test on HL-60(TB) leukemia and with HS 578T breast was above 100 µM in each case. The TGI in the test on NCI-H460 lung, in the test with OVCAR-8 ovarian, in the test on TK-10 renal and in the test with UACC-257 melanoma was above 100 µM in each case.
As to `Cc1sc2nc(NCCc3c[nH]c4ccc(Cl)cc34)[nH]c(=O)c2c1C`, the GI50 in the test with 786-0 renal was 2.39 µM; in the test on ACHN renal, 1.93 µM; in the test on CAKI-1 renal, 1.5 µM; in the test on HCT-15 colon, 1.52 µM; in the test on HL-60(TB) leukemia, 2.34 µM; in the test on HS 578T breast, 1.86 µM. Further, the GI50 in the test with NCI-H460 lung is 2.54 µM; in the test with OVCAR-8 ovarian, 2.12 µM; in the test on TK-10 renal, 3.5 µM; in the test on UACC-257 melanoma it was 2.14 µM. In addition, the TGI amounted to 6.23 µM in the test with 786-0 renal; 4.47 µM with ACHN renal; 3.7 µM with CAKI-1 renal; 11.2 µM with HCT-15 colon; 5.91 µM with HL-60(TB) leukemia; 6.25 µM with HS 578T breast. Moreover, the TGI was 7.95 µM with NCI-H460 lung, 5.69 µM in the test on OVCAR-8 ovarian, 11.5 µM in the test with TK-10 renal and 6.34 µM in the test with UACC-257 melanoma.
On to `OCCCCC#Cc1ccccc1C#Cc1cccc(O)c1`, for which the GI50 with 786-0 renal was 13.8 µM; in the test with ACHN renal, 19.1 µM; with CAKI-1 renal, 16.2 µM; with HCT-15 colon, 13.6 µM; in the test with HL-60(TB) leukemia, 19.4 µM; with HS 578T breast, 31.2 µM. The GI50 with NCI-H460 lung was 18.5 µM; in the test with OVCAR-8 ovarian it was 18.2 µM; in the test on TK-10 renal, 19.2 µM; with UACC-257 melanoma it was 18.1 µM. Besides, the TGI in the test on 786-0 renal amounted to 29.2 µM; with ACHN renal, 41.6 µM; in the test with CAKI-1 renal it was 33.6 µM; in the test with HCT-15 colon, 27 µM; in the test with HL-60(TB) leukemia it was 41.9 µM; with HS 578T breast, 94.7 µM. Besides, the TGI in the test on NCI-H460 lung was 40.7 µM; in the test on OVCAR-8 ovarian, 36.9 µM; in the test on TK-10 renal, 38.2 µM; with UACC-257 melanoma it was 33.1 µM.
Turning to `CCN(CC)CC(C)(C)C(=O)/C=C/c1ccc(Cl)c(Cl)c1`, the GI50 in the test with 786-0 renal is 1.62 µM; in the test with ACHN renal, 1.61 µM; in the test on CAKI-1 renal it was 1.35 µM; with HCT-15 colon, 1.42 µM; with HL-60(TB) leukemia, 1.07 µM; with HS 578T breast it was 2.45 µM. Also, the GI50 was 2.07 µM in the test on NCI-H460 lung, 1.88 µM with OVCAR-8 ovarian, 1.67 µM in the test on TK-10 renal and 2.07 µM in the test on UACC-257 melanoma. In addition, the TGI in the test with 786-0 renal was determined as 3.04 µM; with ACHN renal, 3.09 µM; in the test with CAKI-1 renal it was 2.74 µM; with HCT-15 colon, 2.92 µM; with HL-60(TB) leukemia it was 6.59 µM; with HS 578T breast, 5.94 µM. In addition, the TGI is 4.36 µM with NCI-H460 lung, 3.91 µM in the test on OVCAR-8 ovarian, 3.04 µM in the test with TK-10 renal and 3.64 µM with UACC-257 melanoma.
